According to US9771358B2, “Dihydropyrimidine compounds and their application in pharmaceuticals” (SUNSHINE LAKE PHARMA CO., LTD., priority 2014, dated 2017):

Each compound was assayed on HBV (assay: In-vitro anti-HBV activity in stable HBV-producing cell line (HepG2.2.15), HBV DNA by qPCR). Details: Hepatitis B virus, 168 h; HepG2.2.15 cells, HBV DNA in culture fluid, day 7, top concentration 16.4 μM.
Assay type: cell-based
Description: HBV DNA contents in cell culture fluid were detected by the qPCR-based assay and 50% effective concentration (EC50) values of the compounds against HBV were calculated. Specific procedures are as follows:
HepG2.2.15 cells were seeded into each well of 96-well plates, 40,000 cells per well. Cells were treated with cell culture medium containing compounds with different concentrations for 24 hours after cell seeding. The final concentration of each compound was 16.4 μM in each well and each compound was diluted to desired concentration using 3-fold gradient dilution protocol, 9 diluted points in duplicate. The culture mediums containing the compounds were refreshed on day 4 post cell seeding. Culture media were collected from the HepG2.2.15 plates on day 7 post cell seeding followed by HBV DNA extraction.
HBV DNA extraction: The HBV DNA extraction was performed using QIAamp 96 DNA Blood Kit (QIAGEN 51161).
PCR for quantification: PCR mix was prepared according to PCR system. PCR mix was dispensed to 96-well optical reaction plates (special for quantification). The standard diluted proportionally was added. Then the sample was added; The plates were sealed with optical adhesive film; PCR system was performed according to programs.
Percentage of HBV inhibition of DNA replication by compound was calculated using the following equation: % Inh.=[1-HBV DNA quantity of sample/HBV DNA quantity of DMSO control]×100.
Calculating EC50 value of compounds to HBV replication: the EC50 values were calculated based on “four-parameter logistic equation” and using GraphPad Prism 5 analysis software.
`CCOC(=O)C1=C(CN2CCOC(CCC(=O)O)C2)NC(c2nccs2)=NC1c1ccc(F)cc1Br` (racemic) [contrast 1, 3-(4-((6-(2-bromo-4-fluorophenyl)-5-(ethoxycarbonyl)-2-(thiazol-2-yl)-3,6-dihydropyrimidin-4-yl)methyl)morpholin-2-yl)propanoic acid, reference compound] showed an EC50 of 260 nM. Compound `CCOC(=O)C1=C(CN2CCOC(CCC(=O)O)C2)NC(c2nccs2)=NC1c1ccc(F)cc1Cl` (racemic) [contrast 2, 3-(4-((6-(2-chloro-4-fluorophenyl)-5-(ethoxycarbonyl)-2-(thiazol-2-yl)-3,6-dihydropyrimidin-4-yl)methyl)morpholin-2-yl)propanoic acid, reference compound] has an EC50 of 360 nM. For `COC(=O)C1=C(CN2CCOC(CCC(=O)O)C2)NC(c2nccs2)=NC1c1ccc(F)cc1Cl` (racemic) [contrast 3, 3-(4-((6-(2-chloro-4-fluorophenyl)-5-(methoxycarbonyl)-2-(thiazol-2-yl)-3,6-dihydropyrimidin-4-yl)methyl)morpholin-2-yl)propanoic acid, reference compound], the EC50 was 290 nM. `COC(=O)C1=C(CN2CCOC(CCC(=O)O)C2)NC(c2nccs2)=NC1c1ccc(F)cc1Br` (racemic) [contrast 4, 3-(4-((6-(2-bromo-4-fluorophenyl)-5-(methoxycarbonyl)-2-(thiazol-2-yl)-3,6-dihydropyrimidin-4-yl)methyl)morpholin-2-yl)propanoic acid, reference compound] gave an EC50 of 250 nM. In the case of `CCOC(=O)C1=C(CN2CCOC(CCC(=O)O)C2)NC(c2nccs2)=NC1c1ccc(Cl)cc1Cl` (racemic) [contrast 5, 3-(4-((6-(2,4-dichlorophenyl)-5-(ethoxycarbonyl)-2-(thiazol-2-yl)-3,6-dihydropyrimidin-4-yl)methyl)morpholin-2-yl)propanoic acid, reference compound], the EC50 is reported as 230 nM. `COC(=O)C1=C(CN2CCOC(CCC(=O)O)C2)NC(c2nccs2)=NC1c1ccc(Cl)cc1Cl` (racemic) [contrast 6, 3-(4-((6-(2,4-dichlorophenyl)-5-(methoxycarbonyl)-2-(thiazol-2-yl)-3,6-dihydropyrimidin-4-yl)methyl)morpholin-2-yl)propanoic acid, reference compound] gave an EC50 of 210 nM. With `CCOC(=O)C1=C(CN2CCOCC2CCC(=O)O)NC(c2nccs2)=NC1c1ccc(F)cc1Cl` (racemic) [contrast 7, 3-(4-((6-(2-chloro-4-fluorophenyl)-5-(ethoxycarbonyl)-2-(thiazol-2-yl)-3,6-dihydropyrimidin-4-yl)methyl)morpholin-3-yl)propanoic acid, reference compound] the EC50 was 92 nM. Work on `COC(=O)C1=C(CN2CCOCC2CCC(=O)O)NC(c2nccs2)=NC1c1ccc(F)cc1Cl` (racemic) [contrast 8, 3-(4-((6-(2-chloro-4-fluorophenyl)-5-(methoxycarbonyl)-2-(thiazol-2-yl)-3,6-dihydropyrimidin-4-yl)methyl)morpholin-3-yl)propanoic acid, reference compound] yielded an EC50 of 90 nM. `CCOC(=O)C1=C(CN2CCOCC2CCC(=O)O)NC(c2nccs2)=NC1c1ccc(Cl)cc1Cl` (racemic) [contrast 9, 3-(4-((6-(2,4-dichlorophenyl)-5-(ethoxycarbonyl)-2-(thiazol-2-yl)-3,6-dihydropyrimidin-4-yl)methyl)morpholin-3-yl)propanoic acid, reference compound] was tested, and the EC50 was 63 nM. `COC(=O)C1=C(CN2CCOCC2CCC(=O)O)NC(c2nccs2)=NC1c1ccc(Cl)cc1Cl` (racemic) [contrast 10, 3-(4-((6-(2,4-dichlorophenyl)-5-(methoxycarbonyl)-2-(thiazol-2-yl)-3,6-dihydropyrimidin-4-yl)methyl)morpholin-3-yl)propanoic acid, reference compound] was tested, and the EC50 was 59 nM. `CCOC(=O)C1=C(CN2CCOCC2CCC(=O)O)NC(c2nccs2)=NC1c1ccc(F)cc1Br` (racemic) [contrast 11, 3-(4-((6-(2-bromo-4-fluorophenyl)-5-(ethoxycarbonyl)-2-(thiazol-2-yl)-3,6-dihydropyrimidin-4-yl)methyl)morpholin-3-yl)propanoic acid, reference compound] was tested, and the EC50 was 80 nM. Compound `COC(=O)C1=C(CN2CCOCC2CCC(=O)O)NC(c2nccs2)=NC1c1ccc(F)cc1Br` (racemic) [contrast 12, 3-(4-((6-(2-bromo-4-fluorophenyl)-5-(methoxycarbonyl)-2-(thiazol-2-yl)-3,6-dihydropyrimidin-4-yl)methyl)morpholin-3-yl)propanoic acid, reference compound] has an EC50 of 75 nM. `CCOC(=O)C1=C(CN2CCO[C@H](CC(C)C(=O)O)C2)NC(c2nccs2)=N[C@H]1c1ccc(F)cc1Br` (stereo partly drawn) [Example 3, 3-((R)-4-(((R)-6-(2-Bromo-4-fluorophenyl)-5-(ethoxycarbonyl)-2-(thiazol-2-yl)-3,6-dihydropyrimidin-4-yl)methyl)morpholin-2-yl)-2-methylpropanoic acid] gave an EC50 of 135 nM. Work on `CCOC(=O)C1=C(CN2CCO[C@H](C(C)CC(=O)O)C2)NC(c2nccs2)=N[C@H]1c1ccc(F)cc1Br` (stereo partly drawn) [Example 4, 3-((R)-4-(((R)-6-(2-Bromo-4-fluorophenyl)-5-(ethoxycarbonyl)-2-(thiazol-2-yl)-3,6-dihydropyrimidin-4-yl)methyl)morpholin-2-yl)butanoic acid] yielded an EC50 of 116 nM. For `CCOC(=O)C1=C(CN2CCO[C@H](C)[C@H]2CCC(=O)O)NC(c2nccs2)=N[C@H]1c1ccc(F)cc1Br` [Example 5, 3-((2R,3R)-4-(((R)-6-(2-Bromo-4-fluorophenyl)-5-(ethoxycarbonyl)-2-(thiazol-2-yl)-3,6-dihydropyrimidin-4-yl)methyl)-2-methylmorpholin-3-yl)propanoic acid], the EC50 was 306 nM. Work on `CCOC(=O)C1=C(CN2CCO[C@H](CCCCC(=O)O)C2)NC(c2nccs2)=N[C@H]1c1ccc(F)cc1Br` [Example 7, 5-((R)-4-(((R)-6-(2-Bromo-4-fluorophenyl)-5-(ethoxycarbonyl)-2-(thiazol-2-yl)-3,6-dihydropyrimidin-4-yl)methyl)morpholin-2-yl)pentanoic acid] yielded an EC50 of 72 nM. `CCOC(=O)C1=C(CN2CCOC[C@H]2CCC(=O)O)NC(c2nccs2)=N[C@H]1c1ccc(F)cc1Br` [Example 8, 3-((R)-4-(((R)-6-(2-Bromo-4-fluorophenyl)-5-(ethoxycarbonyl)-2-(thiazol-2-yl)-3,6-dihydropyrimidin-4-yl)methy)morpholin-3-yl)propanoic acid] showed an EC50 of 25 nM. Work on `COC(=O)C1=C(CN2CCOC[C@H]2CCC(=O)O)NC(c2nccs2)=N[C@H]1c1ccc(F)cc1Br` [Example 14, 3-((R)-4-(((R)-6-(2-Bromo-4-fluorophenyl)-5-(methoxycarbonyl)-2-(thiazol-2-yl)-3,6-dihydropyrimidin-4-yl)methyl)morpholin-3-yl)propanoic acid] yielded an EC50 of 140 nM. With `CCOC(=O)C1=C(CN2CCOC[C@@H]2CCC(=O)O)NC(c2nccs2)=N[C@H]1c1ccc(F)cc1Br` [Example 15, 3-((S)-4-(((R)-6-(2-Bromo-4-fluorophenyl)-5-(ethoxycarbonyl)-2-(thiazol-2-yl)-3,6-dihydropyrimidin-4-yl)methyl)morpholin-3-yl)propanoic acid] the EC50 was 7.94 nM. With `COC(=O)C1=C(CN2CCOC[C@@H]2CCC(=O)O)NC(c2nccs2)=N[C@H]1c1ccc(F)cc1Br` [Example 16, 3-((S)-4-(((R)-6-(2-Bromo-4-fluorophenyl)-5-(methoxycarbonyl)-2-(thiazol-2-yl)-3,6-dihydropyrimidin-4-yl)methyl)morpholin-3-yl)propanoic acid] the EC50 was 9 nM. `CCOC(=O)C1=C(CN2CCOC[C@@H]2CCC(=O)O)NC(c2nccs2)=N[C@H]1c1ccc(F)cc1Cl` [Example 17, 3-((S)-4-(((R)-6-(2-Chloro-4-fluorophenyl)-5-(ethoxycarbonyl)-2-(thiazol-2-yl)-3,6-dihydropyrimidin-4-yl)methyl)morpholin-3-yl)propanoic acid] was tested, and the EC50 was 12 nM. `COC(=O)C1=C(CN2CCOC[C@@H]2CCC(=O)O)NC(c2nccs2)=N[C@H]1c1ccc(F)cc1Cl` [Example 18, 3-((S)-4-(((R)-6-(2-Chloro-4-fluorophenyl)-5-(methoxycarbonyl)-2-(thiazol-2-yl)-3,6-dihydropyrimidin-4-yl)methyl)morpholin-3-yl)propanoic acid] was tested, and the EC50 was 10 nM. For `CCOC(=O)C1=C(CN2CCOC[C@@H]2CCC(=O)O)NC(c2nccs2)=N[C@H]1c1ccc(Cl)cc1Cl` [Example 19, 3-((S)-4-(((R)-6-(2,4-Dichlorophenyl)-5-(ethoxycarbonyl)-2-(thiazol-2-yl)-3,6-dihydropyrimidin-4-yl)methyl)morpholin-3-yl)propanoic acid], the EC50 was 6 nM. `COC(=O)C1=C(CN2CCOC[C@@H]2CCC(=O)O)NC(c2nccs2)=N[C@H]1c1ccc(Cl)cc1Cl` [Example 20, 3-((S)-4-(((R)-6-(2,4-Dichlorophenyl)-5-(methoxycarbonyl)-2-(thiazol-2-yl)-3,6-dihydropyrimidin-4-yl)methyl)morpholin-3-yl)propanoic acid] was tested, and the EC50 was 5.5 nM.
